Converted amounts (≈) assume the structure as drawn. The source made the active and inactive calls. No cut-off for these calls is given here.
Tests used:
[1] = test system: Staphylococcus aureus; experiment: Antibacterial activity Staphylococcus aureus assessed as inhibition of bacterial growth incubated for 24 hrs by CLSI based analysis; type: functional
[2] = test system: Staphylococcus aureus; experiment: Antibacterial activity methicillin-resistant Staphylococcus aureus 011 assessed as inhibition of bacterial growth incubated for 24 hrs by CLSI based analysis; type: functional
[3] = test system: Cell membrane; experiment: Disruption of bacterial cell membrane in methicilin-resistant Staphylococcus aureus 003 assessed as increase in green fluorescence intensity incubated for 1 hr by DAPI/PI staning based confocal laser microscopic analysis
[4] = test system: Enterococcus; experiment: Antibacterial activity vancomycin-resistant Enterococcus assessed as inhibition of bacterial growth incubated for 24 hrs by CLSI based analysis; type: functional
[5] = test system: Staphylococcus aureus; experiment: Antibacterial activity methicillin-resistant Staphylococcus aureus 003 assessed as inhibition of bacterial growth incubated for 24 hrs by CLSI based analysis; type: functional
[6] = test system: Staphylococcus aureus; experiment: Antibacterial activity methicillin-resistant Staphylococcus aureus 003 assessed as downregulation of fabD expression by qRT-PCR analysis; type: functional, organism-based
[7] = test system: Staphylococcus aureus; experiment: Induction of resistance development in methicilin-resistant Staphylococcus aureus incubated for 24 hrs treated over 20 serial passages by broth microdilution analysis; type: functional, organism-based
[8] = test system: Staphylococcus aureus; experiment: In vivo antibacterial activity against methicilin-resistant Staphylococcus aureus infected in ICR mouse skin infection model assessed as reduction in bacterial burden at 10 mg/kg, ip preadministered with compound for 24 hrs followed by bacterial infection and measured after 3 days; type: functional; design: scale not given: the % may be the effect or the level left; details: time 96 hrs
[9] = test system: Enterococcus; experiment: Antibacterial activity vancomycin-resistant Enterococcus assessed as decrease in intracellular pH at 4 time MIC measured up to 74 mins; type: functional, organism-based
[10] = test system: Enterococcus; experiment: Bactericidal activity vancomycin-resistant Enterococcus assessed as inhibition of bacterial growth incubated for 24 hrs by CLSI based analysis; type: functional
[11] = test system: Cell membrane; experiment: Induction of inner membrane permeability in methicillin-resistant Staphylococcus aureus 003 assessed as fold change in MIC in presence of phosphatidylglycerol; type: subcellular
[12] = test system: Staphylococcus aureus; experiment: Bactericidal activity methicillin-resistant Staphylococcus aureus 011 assessed as inhibition of bacterial growth incubated for 24 hrs by CLSI based analysis; type: functional
[13] = test system: Staphylococcus aureus; experiment: In vivo antibacterial activity against methicilin-resistant Staphylococcus aureus infected in ICR mouse skin infection model assessed as wound area at 5 mg/kg, ip preadministered with compound for 24 hrs followed by bacterial infection and measured after 3 days; type: functional; details: time 96 hrs
[14] = test system: Staphylococcus aureus; experiment: Antibacterial activity methicillin-resistant Staphylococcus aureus 003 assessed as downregulation of fabF expression by qRT-PCR analysis; type: functional, organism-based
[15] = test system: Staphylococcus aureus; experiment: Bactericidal activity against methicilin-resistant Staphylococcus aureus 003 at 8 times MIC measured after 24 hrs by time kill assay; type: functional, organism-based
[16] = test system: Staphylococcus aureus; experiment: Antibacterial activity methicillin-resistant Staphylococcus aureus 003 assessed as downregulation of fabH expression by qRT-PCR analysis; type: functional, organism-based
[17] = test system: Staphylococcus aureus; experiment: Antibacterial activity methicillin-resistant Staphylococcus aureus 003 assessed as ROS accumulation at 2 to 8 times MIC incubated for 60 mins; type: functional, organism-based
[18] = test system: Staphylococcus aureus; experiment: Antibacterial activity methicillin-resistant Staphylococcus aureus 003 assessed as inhibition of H2S production at 1/4 to 1/8 times MIC; type: functional, organism-based
[19] = test system: Staphylococcus aureus; experiment: Bactericidal activity methicillin-resistant Staphylococcus aureus 003 assessed as inhibition of bacterial growth incubated for 24 hrs by CLSI based analysis; type: functional
[20] = test system: Staphylococcus aureus; experiment: Induction of resistance development Staphylococcus aureus incubated for 24 hrs treated over 11 serial passages by broth microdilution analysis; type: functional, organism-based
[21] = test system: Staphylococcus aureus; experiment: Antibacterial activity methicillin-resistant Staphylococcus aureus 003 assessed as downregulation of plsY expression by qRT-PCR analysis; type: functional, organism-based
[22] = test system: Staphylococcus aureus; experiment: Bactericidal activity against methicilin-resistant Staphylococcus aureus 003 at 2 to 4 times MIC measured after 24 hrs by time kill assay; type: functional, organism-based
[23] = test system: Staphylococcus aureus; experiment: Bactericidal activity against Staphylococcus aureus at 2 to 4 times MIC measured after 24 hrs by time kill assay; type: functional, organism-based
[24] = test system: Staphylococcus aureus; experiment: In vivo antibacterial activity against methicilin-resistant Staphylococcus aureus infected in ICR mouse skin infection model assessed as wound area at 20 mg/kg, ip preadministered with compound for 24 hrs followed by bacterial infection and measured after 3 days; type: functional; details: time 96 hrs
[25] = test system: Cell membrane; experiment: Disruption of bacterial cell membrane in vancomycin-resistant Enterococcus assessed as as appearance of wrinkled cell incubated for 1 hr by DAPI/PI staning based confocal laser microscopic analysis
[26] = test system: Staphylococcus aureus; experiment: In vivo antibacterial activity against methicilin-resistant Staphylococcus aureus infected in ICR mouse skin infection model assessed as wound area at 10 mg/kg, ip preadministered with compound for 24 hrs followed by bacterial infection and measured after 3 days; type: functional; details: time 96 hrs
[27] = test system: Staphylococcus aureus; experiment: Antibacterial activity methicillin-resistant Staphylococcus aureus 003 assessed as downregulation of fabG expression by qRT-PCR analysis; type: functional, organism-based
[28] = test system: Staphylococcus aureus; experiment: Antibacterial activity methicillin-resistant Staphylococcus aureus 003 assessed as downregulation of fabZ expression by qRT-PCR analysis; type: functional, organism-based
[29] = test system: Cell membrane; experiment: Induction of inner membrane permeability in methicillin-resistant Staphylococcus aureus 003 assessed as fold change in MIC in presence of peptidoglycan; type: subcellular
[30] = test system: Acinetobacter baumannii; experiment: Antibacterial activity Acinetobacter baumannii assessed as inhibition of bacterial growth incubated for 24 hrs by CLSI based analysis; type: functional
[31] = test system: Cell membrane; experiment: Induction of inner membrane permeability in Escherichia coli assessed as increase in fluorescence intensity measured for 15 mins in presence of Polymyxin B sulfate
[32] = test system: Staphylococcus aureus; experiment: Bactericidal activity Staphylococcus aureus assessed as inhibition of bacterial growth incubated for 24 hrs by CLSI based analysis; type: functional
[33] = test system: Staphylococcus aureus; experiment: In vivo antibacterial activity against methicilin-resistant Staphylococcus aureus infected in ICR mouse skin infection model assessed as reduction in bacterial burden at 20 mg/kg, ip preadministered with compound for 24 hrs followed by bacterial infection and measured after 3 days; type: functional; design: scale not given: the % may be the effect or the level left; details: time 96 hrs
[34] = test system: Staphylococcus aureus; experiment: Antibacterial activity methicillin-resistant Staphylococcus aureus 003 assessed as inhibition of H2S production at 1/4 times MIC; type: functional
[35] = test system: Staphylococcus aureus; experiment: Antibacterial activity methicillin-resistant Staphylococcus aureus 003 assessed as increase in fluorescence intensity by DiSC3(5) dye based analysis; type: functional, organism-based
[36] = test system: Enterococcus; experiment: Antibacterial activity vancomycin-resistant Enterococcus under […] condition at pH 5.5 to 9.5; type: functional, organism-based
[37] = test system: Cell membrane; experiment: Induction of inner membrane permeability in methicillin-resistant Staphylococcus aureus 003 assessed as fold change in MIC in presence of cardiolipin; type: subcellular
[38] = test system: Cell membrane; experiment: Induction of inner membrane permeability in methicillin-resistant Staphylococcus aureus 003 assessed as increase in fluorescence intensity incubated for 30 mins
[39] = test system: Staphylococcus aureus; experiment: Antibacterial activity methicillin-resistant Staphylococcus aureus 003 assessed as decrease in intracellular pH at 4 time MIC measured up to 74 mins; type: functional, organism-based
[40] = test system: Escherichia coli; experiment: Antibacterial activity Escherichia coli assessed as inhibition of bacterial growth incubated for 24 hrs by CLSI based analysis; type: functional
[41] = test system: Cell membrane; experiment: Induction of inner membrane permeability in vancomycin-resistant Enterococcus assessed as increase in fluorescence intensity incubated for 30 mins
[42] = test system: Cell membrane; experiment: Induction of inner membrane permeability in methicillin-resistant Staphylococcus aureus 003 assessed as fold change in MIC in presence of phosphatidylethanolamine; type: subcellular
[43] = test system: Staphylococcus aureus; experiment: Antibacterial activity methicillin-resistant Staphylococcus aureus 003 under […] condition at pH 5.5 to 9.5; type: functional, organism-based
[44] = test system: Staphylococcus aureus; experiment: Bactericidal activity against Staphylococcus aureus at 2 to 4 times MIC measured after 30 mins by time kill assay; type: functional, organism-based
[45] = test system: Staphylococcus aureus; experiment: Induction of resistance development in methicilin-resistant Staphylococcus aureus 003 incubated for 24 hrs treated over 11 serial passages by broth microdilution analysis; type: functional, organism-based
[46] = test system: Staphylococcus aureus; experiment: In vivo antibacterial activity against methicilin-resistant Staphylococcus aureus infected in ICR mouse skin infection model assessed as reduction in bacterial burden at 5 mg/kg, ip preadministered with compound for 24 hrs followed by bacterial infection and measured after 3 days; type: functional; design: scale not given: the % may be the effect or the level left; details: time 96 hrs
[47] = test system: Staphylococcus aureus; experiment: Antibacterial activity methicillin-resistant Staphylococcus aureus 003 assessed as increase in fluorescence intensity at 4 time MIC; type: functional
[48] = test system: Staphylococcus aureus; experiment: Antibacterial activity methicillin-resistant Staphylococcus aureus 003 assessed as decrease in membrane fluidity incubated for 50 mins; type: functional, organism-based
[49] = test system: Staphylococcus aureus; experiment: Antibacterial activity methicillin-resistant Staphylococcus aureus 003 assessed as increase in intracellular ATP level incubated for 30 mins; type: functional, organism-based
[50] = test system: Staphylococcus aureus; experiment: Induction of resistance development in Staphylococcus aureus incubated for 24 hrs treated over 20 serial passages by broth microdilution analysis; type: functional, organism-based
[51] = test system: Cell membrane; experiment: Disruption of bacterial cell membrane in methicilin-resistant Staphylococcus aureus 003 assessed as as appearance of wrinkled cell incubated for 1 hr by DAPI/PI staning based confocal laser microscopic analysis; type: subcellular
[52] = test system: Staphylococcus aureus; experiment: Antibacterial activity methicillin-resistant Staphylococcus aureus 003 assessed as increase in fluorescence intensity at 1 time MIC; type: functional
[53] = test system: Staphylococcus aureus; experiment: Antibacterial activity methicillin-resistant Staphylococcus aureus 003 assessed as inhibition of H2S production at 50 uM; type: functional
[54] = test system: Cell membrane; experiment: Disruption of bacterial cell membrane in methicilin-resistant Staphylococcus aureus 003 assessed as increase in red fluorescence intensity incubated for 1 hr by DAPI/PI staning based confocal laser microscopic analysis
[55] = test system: Staphylococcus aureus; experiment: Bactericidal activity against Staphylococcus aureus at 4 times MIC measured after 24 hrs by time kill assay; type: functional, organism-based
[56] = test system: Staphylococcus aureus; experiment: Bactericidal activity against methicilin-resistant Staphylococcus aureus 003 at 4 times MIC measured after 24 hrs by time kill assay; type: functional, organism-based

C[C@@H](O)[C@H]1C(=O)N2C(C(=O)O)=C(S[C@@H]3CN[C@H](C(=O)N(C)C)C3)[C@H](C)[C@H]12 [MEROPENEM]
MIC [1]: 2 µg/mL (≈ 5.22 µM) | MIC [2]: > 128 µg/mL | Activity [3]: Active | MIC [4]: 8 µg/mL (≈ 20.9 µM) | MIC [5]: > 128 µg/mL

CC(C)=CCc1c(-c2ccc(O)cc2O)oc2c3c(cc(O)c2c1=O)OC(C)(C)C=C3 [MORUSIN]
Activity [6]: Active | Activity [7]: inactive | Activity [8]: 80% | Activity [9]: Active | MBC [10]: 16 µg/mL (≈ 38.1 µM) | fold change (FC) [11]: 8 | MBC [12]: 16 µg/mL (≈ 38.1 µM) | Activity [13]: 0.3 cm2 | Activity [14]: Active | MIC [1]: 4 µg/mL (≈ 9.51 µM) | Activity [15]: Active | Activity [16]: Active | Activity [17]: Active | inhibition [18]: Active | MBC [19]: 16 µg/mL (≈ 38.1 µM) | Activity [20]: Active | Activity [21]: Active | Activity [22]: Active | Activity [23]: Active | Activity [24]: 0.1 cm2 | Activity [25]: Active | Activity [26]: 0.16 cm2 | Activity [27]: Active | Activity [28]: Active | Activity [29]: inactive | MIC [30]: > 512 µg/mL | Flu intensity [31]: 0.9 | MBC [32]: 8 µg/mL (≈ 19 µM) | MIC [2]: 8 µg/mL (≈ 19 µM) | MIC [4]: 8 µg/mL (≈ 19 µM) | Activity [33]: 90% | inhibition (INH) [34]: 12% | Activity [35]: Dose-Dependent Effect | Activity [36]: Active | fold change (FC) [37]: 8 | MIC [5]: 4 µg/mL (≈ 9.51 µM) | Activity [38]: Dose-Dependent Effect | Activity [39]: Active | MIC [40]: > 512 µg/mL | Activity [41]: Dose-Dependent Effect | fold change (FC) [42]: 32 | Activity [43]: Active | Activity [44]: Active | Activity [45]: Active | Activity [46]: 50% | Flu intensity [47]: 354 | Activity [48]: Dose-Dependent Effect | Activity [49]: Dose-Dependent Effect | Activity [50]: inactive | Activity [51]: Active | Flu intensity [52]: 334

CCc1ccc(CCOc2ccc(CC3SC(=O)NC3=O)cc2)nc1 (configuration not stated) [PIOGLITAZONE]
inhibition at 50 µM [53]: 54%

CN[C@H](CC(C)C)C(=O)N[C@H]1C(=O)N[C@@H](CC(N)=O)C(=O)N[C@H]2C(=O)N[C@H]3C(=O)N[C@H](C(=O)N[C@H](C(=O)O)c4cc(O)cc(O)c4-c4cc3ccc4O)[C@H](O)c3ccc(c(Cl)c3)Oc3cc2cc(c3O[C@@H]2O[C@H](CO)[C@@H](O)[C@H](O)[C@H]2O[C@H]2C[C@](C)(N)[C@H](O)[C@H](C)O2)Oc2ccc(cc2Cl)[C@H]1O [VANCOMYCIN]
Activity [13]: 0.16 cm2 | Activity [54]: Active | Activity [55]: inactive | MIC [4]: 64 µg/mL (≈ 44.2 µM) | Activity [56]: inactive
